In US20020052331A1, “Compositions and methods for antisense inhibition of protein translation” (priority 1990, published 2002):
Read-outs that look alike come from different tables or passages of the source. Strand notation (5' to 3'): a small letter for the sugar, then the base; units joined by * are phosphorothioate-linked, units joined directly phosphodiester-linked; [ ] holds rarer units or linkages, { } end groups; capitals alone tell only the bases. [MMI] = methylene(methylimino) internucleoside backbone linkage; [PRP-N] = 2'-O-propyl ribonucleoside (N: the base); [PRP] = 2'-O-propyl ribonucleoside; e = 2'-O-(2-methoxyethyl) (MOE); [5mC] = 5-methylcytosine; d = 2'-deoxy (DNA); m = 2'-O-methyl; f = 2'-fluoro

Assays:
E-selectin mRNA = experiment: ELISA of E-selectin expression in HUVECs; assay type: cell-based, human; conditions: for inhibition of E-selectin expression: oligomer concentration of 50 nM
VCAM-1 mRNA = experiment: ELISA of VCAM-1 expression in HUVECs; assay type: cell-based, human; conditions: for IC50: read-out: IC50 for inhibition of VCAM-1 expression
ICAM-1 mRNA [1] = experiment: ICAM-1 expression in U937 cells after electroporation of PNA oligomer (FACS); assay type: cell-based, human; conditions: electroporated into U937 cells
From the text: A PNA oligomer, ISIS 10535 (SEQ ID NO: 2), was synthesized, which is a shortened version of SEQ ID NO: 1 made as a PNA, with three arginines added at the 5′ end and one lysine added at the 3′ end. This oligomer was electroporated into U937 cells and a potent dose-response was obtained.
Cells were removed from plate surfaces by brief trypsinization with 0.25% trypsin in PBS. Trypsin activity was quenched with a solution of 2% bovine serum albumin and 0.2% sodium azide in PBS (+Mg/Ca). Cells were pelleted by centrifugation at 1000 rpm (Beckman GPR centrifuge), resuspended in PBS and stained with 3 μl/10^5 cells of ICAM-1 specific antibody, CD54-PE (Becton Dickinson, Mansfield Mass.) and 0.1 μg of control conjugated antibody, IgG2b-PE (Pharmingen, San Diego Calif.). Antibodies were incubated with the cells for 30 minutes at 4° C. in the dark, under gentle agitation. Cells were washed and then resuspended in 0.3 ml of FACSFLOW buffer (Becton Dickinson) with 0.5% formaldehyde. Expression of cell surface ICAM-1 was then determined by flow cytometry using a Becton Dickinson FACScan (San Jose, Calif.). ICAM-1 expression was calculated as a percentage of control expression.
Cells were washed in PBS and resuspended in PBS at 1×10^6 cells/ml. […] ICAM-1 expression was quantitated by FACS as in Example 4.

ICAM-1 mRNA [2] = experiment: Reduction of ICAM-1 protein levels in HUVEC cells (LIPOFECTIN delivery, FACS); assay type: cell-based, human
ICAM-1 mRNA [3] = experiment: Cell surface ICAM-1 expression in U937 cells after electroporation of MMI oligomers; assay type: cell-based, human; conditions: six concentrations 4 to 40 μM, N.A. = IC50 not obtained in the given dose range, read-out: Antisense activity (IC50) Electroporate
Description: ISIS 14293-14296 are corresponding oligomers with alternating MMI/P═S backbones.
U937 cells were washed once in cold Opti-MEM (Gibco-BRL, Grand Island, N.Y.) and resuspended at 4×10^6 cells/ml. Oligomer was added to 0.1 ml of cells and incubated for 10 minutes on ice. Cells were transferred to a 1 mm gap electrode (BTX, San Diego, Calif.) and electroporated at 0.75 kV/cm. Cells were incubated at room temperature for 10 minutes and transferred to pre-warmed medium. Cells were allowed to rest for 1.5 hours before ICAM-1 expression was induced with 5 ng/ml TNF-αovernight. Cells were stained with an anti-ICAM-1-PE antibody (Pharmingen, San Diego CA) the next day.

ICAM-1 mRNA [4] = experiment: ELISA of human ICAM-1 protein expression in HUVECs (mAb84H10); assay type: cell-based; conditions: FIG. 4 experiment
ICAM-1 mRNA [5] = experiment: Cell surface ICAM-1 expression in HUVECs after Lipofectin delivery of MMI oligomers; assay type: cell-based, human; conditions: six concentrations 6.2 to 200 nM, N.A. = IC50 not obtained in the given dose range, read-out: Antisense activity (IC50) Lipofectin
[6] = HUVECs, ELISA, FIG. 5 experiment, read-out: IC50 for reduction of E-selectin expression
[7] = HUVECs, ELISA, equivalent (second) experiment, read-out: IC50 for reduction of E-selectin expression
[8] = read-out: IC50 for inhibition of ICAM-1 protein expression

How did the IC50 (E-selectin mRNA; [6]) turn out when “ISIS 4764: SEQ ID NO: 3, P═S deoxy; E-selectin 5′ cap (dG*dA*dA*dG*dT*dC*dA*dG*dC*dC*dA*dA*dG*dA*dA*dC*dA*dG*dC*dT)” was run?
Its IC50 is ~10 nM.

And the IC50 (E-selectin mRNA; [7])?
Its IC50 is 10 nM.

What about the IC50 (E-selectin mRNA; HUVECs, FIG. 3 experiment, read-out: IC50 for inhibition of E-selectin expression) of the same substance?
Its IC50 is < 10 nM.

“ISIS 5884: CGATGCAGATACCGCGGAGT (SEQ ID NO: 15), P═S deoxy; VCAM-1 n.t. 1-20 (dC*dG*dA*dT*dG*dC*dA*dG*dA*dT*dA*dC*dC*dG*dC*dG*dG*dA*dG*dT)” was tested. Which IC50 (VCAM-1 mRNA; FIG. 6 experiment) did it give?
The IC50 was 10 to 12 nM.

With “ISIS 9218: SEQ ID NO: 3, P═S all 2′-O-propyl except 3′ nt is deoxy; E-selectin 5′ cap (GAAGTCAGCCAAGAACAGCT; sugars from the 5' end [PRP]19 d1, all phosphorothioate, methylation of C not given here)” as the substance, how does the IC50 (E-selectin mRNA; [7]) read?
The IC50 was 25 nM.

How did the “IC50 for inhibition of E-selectin expression” value (E-selectin mRNA; HUVECs, FIG. 3 experiment) turn out when “ISIS 9984: SEQ ID NO: 3 GAAGTCAGCCAAGAACAGCT, P═S all 2′ F except 3′ nt is deoxy; E-selectin 5′ cap (sugars from the 5' end f19 d1, all phosphorothioate, T or U not given here)” was run?
The value was “well below this”.

And the “relative activity in inhibiting E-selectin protein expression” value (E-selectin mRNA; among over 30 2′-fluoro phosphorothioate sequences complementary to various regions of the E-selectin message)?
Its value is “by far the most active”.

For “ISIS 10535: PNA oligomer (SEQ ID NO: 2), shortened SEQ ID NO: 1, three arginines at the 5′ end and one lysine at the 3′ end (antisense TCTGAGTAGCAGAGGAGC; all peptide nucleic acid (PNA); three arginines at 5' end, one lysine at 3' end)”, which “ICAM-1 level at higher doses” value (ICAM-1 mRNA [1]) is on record?
Its value is “below baseline levels”.

What about the IC50 (ICAM-1 mRNA [1]; read-out: IC50 for ICAM-1 reduction) of the same substance?
Its IC50 is < 5000 nM.

“ISIS 11158: SEQ ID NO: 1, 2′-methoxyethoxy, phosphodiester (P═O); targeted to ICAM-1 5′ cap (antisense TCTGAGTAGCAGAGGAGCTC; all 2'-MOE, all phosphodiester, methylation of C not given here)” was tested. Which “ICAM-1 protein expression at the oligonucleotide concentrations of the Northern experiment” value (ICAM-1 mRNA [2]; HUVECs) did it give?
The value was “completely inhibited”.

And the IC50 (ICAM-1 mRNA [2]; read-out: IC50 (concentration required for 50% inhibition of ICAM-1 levels), HUVEC cells)?
The IC50 was ~9 nM.

What about the IC50 (ICAM-1 mRNA [3]) of the same substance?
The IC50 was 1000 nM.

What about the IC50 (ICAM-1 mRNA [4]; [8]) of the same substance?
Its IC50 is ~5 nM.

“ISIS 11205: SEQ ID NO: 3, P═S all 2′ F except 3′ nt is deoxy, all C's 5meC; E-selectin 5′ cap (antisense GAAGTCAGCCAAGAACAGCT; sugars from the 5' end f19 d1, all C 5-methyl, all phosphorothioate, T or U not given here)” was tested. Which IC50 (E-selectin mRNA; [6]) did it give?
Its IC50 is < 3 nM.

And the IC50 (E-selectin mRNA; [7])?
The IC50 was < 3 nM.

And the “inhibition of E-selectin expression” value (E-selectin mRNA; HUVECs)?
Its value is ~100%.

“ISIS 11928: SEQ ID NO: 3, P═S all 2′-MOE except 3′ nt is deoxy, all C's 5meC; E-selectin 5′ cap (antisense eG*eA*eA*eG*eT*e[5mC]*eA*eG*e[5mC]*e[5mC]*eA*eA*eG*eA*eA*e[5mC]*eA*eG*e[5mC]*dT)” was tested. Which IC50 (E-selectin mRNA; [6]) did it give?
The IC50 was < 3 nM.

And the IC50 (E-selectin mRNA; [7])?
The IC50 was < 3 nM.

What about the “inhibition of E-selectin expression” value (E-selectin mRNA; HUVECs) of the same substance?
Its value is ~100%.

What does the source list for “ISIS 13181: SEQ ID NO: 15 sequence, P═S all 2′ F; VCAM-1 n.t. 1-20 (antisense CGATGCAGATACCGCGGAGT; sugars from the 5' end f19 d1, all phosphorothioate, T or U not given here)”?
IC50 (VCAM-1 mRNA; FIG. 6 experiment): < 10 nM; inhibition of VCAM-1 expression (VCAM-1 mRNA; highest dose tested, 100 nM): 100%

How did the IC50 (VCAM-1 mRNA; FIG. 6 experiment) turn out when “ISIS 13182: SEQ ID NO: 15, P═S all 2′-MOE, all C's are 5meC; VCAM-1 n.t. 1-20 (antisense e[5mC]*eG*eA*eT*eG*e[5mC]*eA*eG*eA*eT*eA*e[5mC]*e[5mC]*eG*e[5mC]*eG*eG*eA*eG*dT)” was run?
The IC50 was < 10 nM.

How did the IC50 (VCAM-1 mRNA; FIG. 6 experiment) turn out when “ISIS 13183: SEQ ID NO: 15, P═O all 2′-MOE, all C's are 5meC; VCAM-1 n.t. 1-20 (antisense e[5mC]eGeAeTeGe[5mC]eAeGeAeTeAe[5mC]e[5mC]eGe[5mC]eGeGeAeGdT)” was run?
Its IC50 is < 10 nM.

How did the IC50 (ICAM-1 mRNA [4]; [8]) turn out when “ISIS 13884: GGCTGAGGTTGCAACTCTGA (SEQ ID NO: 9), uniform P═O/2′MOE; ICAM-1 n.t. 16-35 (antisense eGeGe[5mC]eTeGeAeGeGeTeTeGe[5mC]eAeAe[5mC]eTe[5mC]eTeGdA)” was run?
The IC50 was ~40 nM.

Which results are given for “ISIS 13886: GCAACTCTGAGTAGCAGAGG (SEQ ID NO: 10), uniform P═O/2′MOE; ICAM-1 n.t. 6-25 (antisense eGe[5mC]eAeAe[5mC]eTe[5mC]eTeGeAeGeTeAeGe[5mC]eAeGeAeGdG)”?
IC50 (ICAM-1 mRNA [4]; [8]): > 50 nM; IC50 (ICAM-1 mRNA [4]; tested only up to 50 nM, read-out: estimated IC50 by extrapolation of the dose-response curve): ~60 nM

With “ISIS 14040: SEQ ID NO: 15, P═S all 2′-O-propyl, all C's are 5meC; VCAM-1 n.t. 1-20 (antisense [PRP-5mC]*[PRP-G]*[PRP-A]*[PRP-T]*[PRP-G]*[PRP-5mC]*[PRP-A]*[PRP-G]*[PRP-A]*[PRP-T]*[PRP-A]*[PRP-5mC]*[PRP-5mC]*[PRP-G]*[PRP-5mC]*[PRP-G]*[PRP-G]*[PRP-A]*[PRP-G]*dT)” as the substance, how does the IC50 (VCAM-1 mRNA; subsequent experiment) read?
Its IC50 is < 10 nM.

How did the IC50 (VCAM-1 mRNA; subsequent experiment) turn out when “ISIS 14041: SEQ ID NO: 15, P═S all 2′-O-methyl, all C's are 5meC; VCAM-1 n.t. 1-20 (CGATGCAGATACCGCGGAGT; sugars from the 5' end m19 d1, all C 5-methyl, all phosphorothioate, T or U not given here)” was run?
The IC50 was < 10 nM.

How did the IC50 (E-selectin mRNA; [7]) turn out when “ISIS 14043: SEQ ID NO: 3, P═S all 2′-O-methyl except 3′ nt is deoxy, all C's 5meC; E-selectin 5′ cap (GAAGTCAGCCAAGAACAGCT; sugars from the 5' end m19 d1, all C 5-methyl, all phosphorothioate, T or U not given here)” was run?
Its IC50 is 10 nM.

Which IC50 (ICAM-1 mRNA [3]) does the source give for “ISIS 14290: T*GA*GT*AG*CA*GA*GG*AG*CT*C (SEQ ID NO: 12), alternating P═O/MMI; ICAM-1 n.t. 1-18 (TGAGTAGCAGAGGAGCTC; linkages [MMI]o[MMI]o[MMI]o[MMI]o[MMI]o[MMI]o[MMI]o[MMI]o[MMI] (s phosphorothioate, o phosphodiester), sugars by position and methylation of C not given here; 3'-terminal nucleotide 2'-deoxy, non-terminal cytosines 5-methylated)” here?
The IC50 was 7000 nM.

“ISIS 14292: T*AG*CA*GA*GG*AG*CT*C (SEQ ID NO: 14), alternating P═O/MMI; ICAM-1 n.t. 1-14 (TAGCAGAGGAGCTC; linkages [MMI]o[MMI]o[MMI]o[MMI]o[MMI]o[MMI]o[MMI] (s phosphorothioate, o phosphodiester), sugars by position and methylation of C not given here; 3'-terminal nucleotide 2'-deoxy, non-terminal cytosines 5-methylated)” was tested. Which IC50 (ICAM-1 mRNA [3]) did it give?
The IC50 was 15000 nM.

For “ISIS 14293: T*CT*GA*GT*AG*CA*GA*GG*AG*CT*C (SEQ ID NO: 1), alternating P═S/MMI; ICAM-1 n.t. 1-20 (TCTGAGTAGCAGAGGAGCTC; linkages [MMI]s[MMI]s[MMI]s[MMI]s[MMI]s[MMI]s[MMI]s[MMI]s[MMI]s[MMI] (s phosphorothioate, o phosphodiester), sugars by position and methylation of C not given here; 3'-terminal nucleotide 2'-deoxy, non-terminal cytosines 5-methylated)”, which IC50 (ICAM-1 mRNA [5]) is on record?
Its IC50 is 115 nM.

And the IC50 (ICAM-1 mRNA [3])?
The IC50 was 32000 nM.

“ISIS 14295: A*GT*AG*CA*GA*GG*AG*CT*C (SEQ ID NO: 13), alternating P═S/MMI; ICAM-1 n.t. 1-16 (AGTAGCAGAGGAGCTC; chemistry not fully specified)” was tested. Which IC50 (ICAM-1 mRNA [3]) did it give?
Its IC50 is 35000 nM.
